This is an account of results in patent US20240148623A1, “GADUSOL AND GADUSPORINE COMPOUND FORMULATIONS FOR TOPICALS” (GADUSOL LABORATORIES, INC., priority 2021, published 2024).

For series [1] the following is noted: cited from earlier work.
The test system of another series is cells. Description: In vivo antioxidant testing (intracytoplasmic activity in cells). It is filed as cell-based. The note with it: for lysis of the cells: highest dose 3.3 mg/ml. On the procedure: The test is designed to measure antioxidant power but requires also that the anti-oxidant agent cross the cell's lipid boundary layer so that only intracytoplasmic activity is measured. […] Some activity was seen even at concentrations below 0.1 mg/ml.

Another series concerns Vero E6 fibroblasts. Description: Cellular toxicity in Vero E6 fibroblasts. It is filed as cell-based. The note with it: compared to oxybenzone. The text has this:
(§1) The cellular toxicity of gadusol was compared to that of a common sunscreen ingredient, oxybenzone. Vero E6 fibroblasts were used to evaluate toxicity.

A short description of another series: Ames test (mutagenicity). It is filed as cell-based. A general note: The Ames test detects mutagens through reverse mutation in bacteria.
A further series deals with E. coli. Nature of the series: Toxicity towards E. coli. The series is classed as cell-based.
A short description of another series: Comet assay. It is filed as cell-based.
Description: as §1

Series [2] in a line: Antioxidant capacity, Folin-Ciocalteu method. The note with it: 0.3 to 10 mg/ml, versus porphyra-334.
Series [3] is described as follows: Storage stability of gadusol. The series is classed as physicochemical. The note with it: after 90 days at pH 2.5. The text has this: Addition of an antioxidant could be helpful in increasing the shelf life of gadusol. The stability of gadusol is much higher when stored under acidic conditions. For example, 90% activity was retained after 90 days at pH 2.5. Therefore, storage under acidic conditions may be useful for stabilizing gadusol generally, e.g., prior to introduction into a topical formulation. Combining gadusol with another antioxidant may be useful for extending the shelf life or stability of gadusol in a topical formulation. Storage of gadusol in nitrogen-purged solutions in containers with minimal headspace increased its stability.

A short description of series [4]: UV absorbance (absorption maximum, molar extinction coefficient). It is filed as physicochemical. The settings on record: for UV maximum: under acidic conditions. The text has this:
Gadusol, gadusporine A 100, gadusporine, B 102, and gadusporine C 104 may be isolated by column purification of Streptomyces coelicolor culture broth (as described in the above publication).
Despite the only difference being a hydroxy group, there are a few notable differences between shinorine and gadusporine A 100. Shinorine has been reported to have an absorption max=330 nm at pH 1.7 and an absorption max=334 nm at pH 7. […] Gadusporine A 100 has a molar extinction coefficient (□□=49,400, as measured in 50 mM phosphate buffer at pH 7.0, which is slightly higher than that of shinorine (□□=44,000), and thus has stronger UV absorbance activity.

The nature of a further series: Solubility in methanol. The series is classed as physicochemical. The text has this: Gadusporine B 102 contains L-alanine and glycine, making gadusporine B 102 an analog of mycosporine-glycine-alanine.

Read-outs that look alike come from different tables or passages of the source.

Take `COC1=C(NCC(=O)O)C[C@@](O)(CO)C/C1=N\[C@@H](CO)C(=O)O` [Shinorine]: the absorption max in [1] (pH 1.7, reported) is recorded as 330 nm; in series [1] (pH 7, reported) it was 334 nm. In addition, the molar extinction coefficient in [1] (shinorine comparison value) is recorded as 44,000.

In the case of `COC1=C(NCC(=O)O)C[C@@](O)(CO)CC1=N[C@H](C(=O)O)[C@@H](C)O` [porphyra-334, reference compound], the “lysis of the cells” value with cells is listed as “some lysis of the cells”.

Turning to `COC1=C(O)CC(O)(CO)C(O)C1=O` (stereo not shown) [Gadusol], the cellular toxicity result in the series with Vero E6 fibroblasts is given as “less toxic than oxybenzone”. Besides, the mutagenicity entry in the series “Ames test (mutagenicity)” is “not to be mutagenic”. In the series with E. coli, the “toxicity towards E. coli” value is “nor toxic towards E. coli”. Moreover, the “toxicity in comet assay” value in “Comet assay” is given as “nor toxic in the comet assay”. Also, in [2], the antioxidant power entry is listed as “equivalent to a mycosporine compound”. For the same molecule, the “in vivo antioxidant activity” value is on record as “significantly more active antioxidant” in the series on cells (at about 1 mg/ml, versus the mycosporine) and “outperformed porphyra-334” with cells (overall, compared with porphyra-334). Moreover, the “lysis of the cells” value with cells was “some lysis of the cells”. Besides, in series [3], the activity retained worked out at 90%.

Regarding Gadusporine B, the UV maximum in series [4] is given as 338 nm. For the same molecule, the solubility in methanol entry in the series “Solubility in methanol” is on record as “not very soluble in methanol”.

Consider Gadusporine A, for which, in series [4] (50 mM phosphate buffer at pH 7.0, in M-1 cm-1 (unit assumed)), the molar extinction coefficient was 49,400. The absorption max in series [4] (pH 2.0) was 338; in series [4] (pH 7.0) it was 340 nm. Besides, in [4], the UV maximum is on record as 338 nm.
